Measured values from patent US20230041738A1, “1H-PYRAZOLO[4,3-d]PYRIMIDINE COMPOUNDS AS TOLL-LIKE RECEPTOR 7 (TLR7) AGONISTS” (BRISTOL-MYERS SQUIBB COMPANY, priority 2020, published 2023).

Assays:
[1] = molecular target: T1, human TLR7 (Homo sapiens, UniProt Q9NYK1); experiment: Human TLR7 agonist activity assay (hTLR7 reporter, HEK-Blue TLR7 cells, SEAP); type: cell-based; details: HEK-Blue TLR7 cells with SEAP reporter, 18 h treatment; average where assay performed multiple times
T1 construct: host or cells: HEK-Blue TLR7 cells (engineered human embryonic kidney cells)
T1 sequence (Q9NYK1 27-1049): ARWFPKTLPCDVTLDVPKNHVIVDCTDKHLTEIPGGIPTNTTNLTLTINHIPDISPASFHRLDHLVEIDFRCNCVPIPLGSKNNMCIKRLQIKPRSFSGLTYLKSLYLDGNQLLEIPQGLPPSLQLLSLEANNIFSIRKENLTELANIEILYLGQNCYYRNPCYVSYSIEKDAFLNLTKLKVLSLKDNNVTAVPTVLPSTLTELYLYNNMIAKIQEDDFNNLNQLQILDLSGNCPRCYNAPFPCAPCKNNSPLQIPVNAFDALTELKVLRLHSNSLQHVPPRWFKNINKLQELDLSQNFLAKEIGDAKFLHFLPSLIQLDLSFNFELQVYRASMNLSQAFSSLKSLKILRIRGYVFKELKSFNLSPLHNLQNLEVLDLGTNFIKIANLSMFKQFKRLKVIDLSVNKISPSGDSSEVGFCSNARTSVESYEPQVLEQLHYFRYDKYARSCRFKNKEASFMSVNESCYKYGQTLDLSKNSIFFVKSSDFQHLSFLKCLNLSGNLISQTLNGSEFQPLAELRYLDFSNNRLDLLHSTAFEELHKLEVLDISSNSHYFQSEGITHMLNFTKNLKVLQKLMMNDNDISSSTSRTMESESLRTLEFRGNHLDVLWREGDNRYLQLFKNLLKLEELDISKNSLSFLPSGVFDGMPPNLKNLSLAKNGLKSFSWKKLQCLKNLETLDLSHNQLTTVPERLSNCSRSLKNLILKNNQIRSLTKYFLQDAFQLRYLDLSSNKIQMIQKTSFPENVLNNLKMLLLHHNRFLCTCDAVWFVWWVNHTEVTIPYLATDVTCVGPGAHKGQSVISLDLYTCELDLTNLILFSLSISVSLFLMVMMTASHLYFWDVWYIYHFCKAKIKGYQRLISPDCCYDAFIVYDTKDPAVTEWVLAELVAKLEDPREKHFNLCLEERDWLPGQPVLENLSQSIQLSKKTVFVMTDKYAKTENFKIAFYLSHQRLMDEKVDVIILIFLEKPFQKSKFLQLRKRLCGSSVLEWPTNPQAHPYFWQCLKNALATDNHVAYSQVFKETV
Experimental: This procedure describes a method for assaying human TLR7 (hTLR7) agonist activity of the compounds disclosed in this specification.
HEK-Blue™ TLR7 cells were added to each well of a 384-well tissue-culture plate (15,000 cells per well) and incubated 16-18 h at 37° C., 5% CO2. Compounds (100 nl) were dispensed into wells containing the HEK-Blue™ TLR cells and the treated cells were incubated at 37° C., 5% CO2. After 18 h treatment ten microliters of freshly-prepared Quanti-Blue™ reagent (Invivogen) was added to each well, incubated for 30 min (37° C., 5% CO2) and SEAP levels measured using an Envision plate reader (OD=620 nm). The half maximal effective concentration values (EC50; compound concentration which induced a response halfway between the assay baseline and maximum) were calculated.

[2] = test system: CD69; experiment: Induction of CD69 in human whole blood (hWB); type: cell-based; details: 17 hrs at 37 C, CD69 surface staining, 100% set to 1 uM resiquimod, average where performed multiple times
Experimental: The induction of Type I interferon (IFN) MX-1 genes and the B-cell activation marker CD69 are downstream events that occur upon activation of the TLR7 pathway. The following is a human whole blood assay that measures their induction in response to a TLR7 agonist.
Heparinized human whole blood was harvested from human subjects and treated with test TLR7 agonist compounds at 1 mM. The blood was diluted with RPMI 1640 media and Echo was used to predot 10 nL per well giving a final concentration of 1 uM (10 nL in 10 uL of blood). After mixing on a shaker for 30 sec, the plates were covered and placed in a 37° C. chamber for o/n=17 hrs. Fixing/lysis buffer was prepared (5×→1× in H2O, warm at 37° C.; Cat #BD 558049) and kept the perm buffer (on ice) for later use.
For surface markers staining (CD69): prepared surface Abs: 0.045 ul hCD14-FITC (ThermoFisher Cat #MHCD1401)+0.6 ul hCD19-ef450 (ThermoFisher Cat #48-0198-42)+1.5 ul hCD69-PE (cat #BD555531)+0.855 ul FACS buffer. Added 3 ul/well, spin1000 rpm for 1 min and mixed on shaker for 30 sec, put on ice for 30 mins. Stop stimulation after 30 min with 70 uL of prewarmed 1× fix/lysis buffer and use Feliex mate to resuspend (15 times, change tips for each plate) and incubate at 37C for 10 min.
Centrifuge at 2000 rpm for 5 min aspirate with HCS plate washer, mix on shaker for 30 sec and then wash with 70 uL in dPBS and pelleted 2× s (2000 rpm for 5 min) and 50 ul wash in FACS buffer pelleted 1×s(2000 rpm for 5 min). Mix on shaker for 30 sec. For Intracellular markers staining (MX-1): Add 50 ul of BD Perm buffer III and mix on shaker for 30 sec. Incubate on ice for 30 min (in the dark). Wash with 50 uL of FACS buffer 2× (spin @2300 rpm×5 min after perm) followed by mixing on shaker for 30 sec. Resuspended in 20 ul of FACS buffer containing MX1 antibody ( )(4812)-Alexa 647: Novus Biologicals #NBP2-43704AF647) 20 ul FACS bf+0.8 ul hlgG+0.04 ul MX-1. Spin 1000 rpm for 1 min, mix on shaker for 30se and the samples were incubated at RT in the dark for 45 min followed by washing 2× FACS buffer (spin @2300 rpm×5 min after perm). Resuspend 20 ul (35 uL total per well) of FACS buffer and cover with foil and place in 4° C. to read the following day. Plates were read on iQuePlus. The results were loaded into toolset and IC50 curves are generated in curve master. The y-axis 100% is set to 1 uM of resiquimod.

SMILES	EC50 [1] [nM]	EC50 [2] [nM]
COc1cc(CN2C[C@@H]3C[C@H]2CN3C)ccc1Cn1ncc2nc(N)nc(NCc3noc(C)n3)c21 [Compound 130, 1-[(2-methoxy-4-{[(1S,4S)-5-methyl-2,5-diazabicyclo[2.2.1]-heptan-2-yl]methyl}phenyl)methyl]-N7-[(5-methyl-1,2,4-oxa-diazol-3-yl)methyl]-1H-pyrazolo[4,3-d]pyrimidine-5,7-diamine]	135	74.3
CCC[C@@H](CCO)Nc1nc(N)nc2cnn(Cc3cnc(CN4C[C@@H]5C[C@H]4CN5C)cc3OC)c12 [Compound 131, (3S)-3-({5-amino-1-[(4-methoxy-6-{[(1S,4S)-5-methyl-2,5-diaza-bicyclo[2.2.1]heptan-2-yl]methyl}pyridin-3-yl)methyl]-1H-pyrazolo[4,3-d]pyrimidin-7-yl}amino)hexan-1-ol]	333	11.7
CCC[C@@H](CCO)Nc1nc(N)nc2cnn(Cc3cnc(CN4C[C@H]5CN(C)C[C@H]5C4)cc3OC)c12 [Compound 132, (3S)-3-({1-[(6-{[(3aR,6aS)-5-methyl-octahydropyrrolo[3,4-c]pyrrol-2-yl]methyl}-4-methoxypyridin-3-yl)methyl]-5-amino-1H-pyrazolo [4,3-d]pyrimidin-7-yl}amino)hexan-1-ol]	65.9	2.2
CCC[C@@H](CCO)Nc1nc(N)nc2cnn(Cc3cnc(CN4C[C@H]5CNC[C@H]5C4)cc3OC)c12 [Compound 133, (3S)-3-({1-[(6-{[(3aR,6aS)-octa-hydropyrrolo[3,4-c]pyrrol-2-yl]methyl}-4-methoxypyridin-3-yl)methyl]-5-amino-1H-pyrazolo[4,3-d]pyrimidin-7-yl}amino)hexan-1-ol]	89.9	2.8
CCC[C@@H](CCO)Nc1nc(N)nc2cnn(Cc3cnc(CN4C[C@@H]5C[C@H]4CN5)cc3OC)c12 [Compound 134, (3S)-3-({5-amino-1-[(6-{[(1S,4S)-2,5-diazabicyclo[2.2.1]heptan-2-yl]methyl}-4-methoxypyridin-3-yl)methyl]-1H-pyrazolo[4,3-d]pyrimidin-7-yl}amino)hexan-1-ol]	354	22.4
CCC[C@@H](CCO)Nc1nc(N)nc2cnn(Cc3ncc(CN4C[C@@H]5C[C@H]4CN5CCO)cc3OC)c12 [Compound 135, (3S)-3-({5-amino-1-[(5-{[(1S,4S)-5-(2-hydroxyethyl)-2,5-diaza-bicyclo[2.2.1]heptan-2-yl]methyl}-3-methoxypyridin-2-yl)methyl]-1H-pyrazolo[4,3-d]pyrimidin-7-yl}amino)hexan-1-ol]	297	12.2
CCCCNc1nc(N)nc2cnn(Cc3ccc(CN4C[C@H]5CNC[C@H]5C4)cc3OC)c12 [Compound 136, 1-[(4-{[(3aR,6aS)-octahydro-pyrrolo[3,4-c]pyrrol-2-yl]methyl}-2-methoxyphenyl)methyl]-N7-butyl-1H-pyrazolo[4,3-d]pyrimidine-5,7-diamine]	62.2	1.3
COc1cc(CN2C[C@H]3C[C@@H]2CN3C)ccc1Cn1ncc2nc(N)nc(N[C@H](CO)CC3CC3)c21 [Compound 137, (2S)-2-({5-amino-1-[(2-methoxy-4-{[(1R,4R)-5-methyl-2,5-diaza-bicyclo[2.2.1]heptan-2-yl]methyl}-phenyl]methyl]-1H-pyrazolo[4,3-d]pyrimidin-7-yl}amino)-3-cyclopropylpropan-1-ol]	576	13.2
CCC[C@@H](CCO)Nc1nc(N)nc2cnn(Cc3ncc(CN4C[C@H]5C[C@@H]4CN5CCO)cc3OC)c12 [Compound 138, (3S)-3-({5-amino-1-[(5-{[(1R,4R)-5-(2-hydroxyethyl)-2,5-diaza-bicyclo[2.2.1]heptan-2-yl]methyl}-3-methoxypyridin-2-yl)methyl]-1H-pyrazolo[4,3-d]pyrimidin-7-yl}amino)hexan-1-ol]	278	3
CCCCNc1nc(N)nc2cnn(Cc3ccc(CN4C[C@H]5CN(CCO)C[C@H]5C4)cc3OC)c12 [Compound 139, 2-[(3aR,6aS)-5-[(4-{[5-amino-7-(butylamino)-1H-pyrazolo[4,3-d]pyrimidin-1-yl]methyl}-3-methoxy-pheny)methyl]-octahydropyrrolo[3,4-c]pyrrol-2-yl]ethan-1-ol]	19.6	1.9
CCC[C@@H](CCO)Nc1nc(N)nc2cnn(Cc3cnc(CN4C[C@H]5C[C@@H]4CN5CCO)cc3OC)c12 [Compound 140]	716	31.6
CCC[C@@H](CCO)Nc1nc(N)nc2c(C)nn(Cc3ccc(CN4C[C@H]5C[C@@H]4CN5CCO)cc3OC)c12 [Compound 141, (3S)-3-({5-amino-1-[(4-{[(1R,4R)-5-(2-hydroxyethyl)-2,5-diazabicyclo [2.2.1]heptan-2-yl]methyl}-2-methoxyphenyl)methyl]-3-methyl-1H-pyrazolo[4,3-d]pyrimidin-7-yl}amino)hexan-1-ol]	59.9	10.6
CCCCNc1nc(N)nc2cnn(Cc3ccc(CN4C[C@H]5CNC[C@H]5C4)cc3OC)c12 [Compound 143, 1-[(4-{[(3aR/6aS)-octahydropyrrolo [3,4-c]pyrrol-2-yl]methyl}-2-methoxyphenyl)methyl]-N7-butyl-1H-pyrazolo[4,3-d]pyrimidine-5,7-diamine]	62.2	1.29
